Data on 21 compounds can be found in US12662491B2 (Redona Therapeutics, Inc., priority 2020, dated 2026).

A value given as a limit tells only on which side of the number the result lay.

As a reminder, the IC50 is the concentration at which inhibition is half-maximal.

The target in the experiment is T1, Zcchc11 enzyme (Homo sapiens, UniProt Q5TAX3).
T1 construct: made in house; host or cells: HEK293 cells (Zcchc11); E. coli Rosetta II (LIN28A)
T1 sequence (Q5TAX3 212-1420): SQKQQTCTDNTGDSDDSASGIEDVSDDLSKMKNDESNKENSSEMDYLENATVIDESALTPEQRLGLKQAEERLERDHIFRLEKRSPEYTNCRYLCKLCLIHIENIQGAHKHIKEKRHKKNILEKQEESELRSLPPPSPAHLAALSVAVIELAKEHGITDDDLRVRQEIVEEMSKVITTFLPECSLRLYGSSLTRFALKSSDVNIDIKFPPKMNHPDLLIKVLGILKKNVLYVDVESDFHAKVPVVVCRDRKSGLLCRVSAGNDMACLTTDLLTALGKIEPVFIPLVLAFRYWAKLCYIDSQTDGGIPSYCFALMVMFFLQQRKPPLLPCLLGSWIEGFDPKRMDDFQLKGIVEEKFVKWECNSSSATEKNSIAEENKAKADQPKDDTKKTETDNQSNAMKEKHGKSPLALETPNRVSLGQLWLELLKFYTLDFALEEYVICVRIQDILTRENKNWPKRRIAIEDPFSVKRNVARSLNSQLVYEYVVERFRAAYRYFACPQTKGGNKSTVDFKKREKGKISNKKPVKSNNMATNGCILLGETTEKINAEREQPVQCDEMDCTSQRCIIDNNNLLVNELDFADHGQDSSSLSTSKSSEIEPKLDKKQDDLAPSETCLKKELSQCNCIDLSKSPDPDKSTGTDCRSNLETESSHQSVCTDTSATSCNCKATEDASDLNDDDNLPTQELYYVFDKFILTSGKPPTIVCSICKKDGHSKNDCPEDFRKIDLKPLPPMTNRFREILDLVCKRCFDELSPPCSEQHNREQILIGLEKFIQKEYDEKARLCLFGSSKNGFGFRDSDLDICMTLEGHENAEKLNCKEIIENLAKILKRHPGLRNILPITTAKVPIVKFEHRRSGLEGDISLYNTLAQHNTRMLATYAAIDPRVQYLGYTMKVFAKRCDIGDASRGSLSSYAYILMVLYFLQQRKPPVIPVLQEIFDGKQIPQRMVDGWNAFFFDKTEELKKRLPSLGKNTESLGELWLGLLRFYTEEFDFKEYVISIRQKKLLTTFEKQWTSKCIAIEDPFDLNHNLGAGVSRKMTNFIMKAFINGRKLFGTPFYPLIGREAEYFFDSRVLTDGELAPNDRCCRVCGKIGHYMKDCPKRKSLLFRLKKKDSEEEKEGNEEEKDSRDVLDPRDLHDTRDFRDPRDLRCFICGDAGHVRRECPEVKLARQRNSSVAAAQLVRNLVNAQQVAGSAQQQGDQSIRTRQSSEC
As to the kind of experiment: TUTase assay (Zcchc11 assay, Lin28a-dependent polyuridylation of pre-let-7). The format is biochemical. The settings on record: Lin28a-dependent Zcchc11 (Z11) TUTase assay; read-out: Potency Lin28a-dep Z11 IC50. The method, boiled down: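 HEK293-expressed human Zcchc11 (residues 212-1420, 0.2 nM) with 10 nM LIN28A and 2 nM 5′-fluorescein pre-let-7, preincubated 30 min at room temperature, pH 7.3. Started with 5 uM UTP; poly(U) tails quenched by 3′-rhodamine A20 probe, read kinetically. IC50 from early-rate four-parameter fit; no-UTP wells define 0%.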
On to `Cc1cc2c(=O)c(C(=O)O)cn(-c3cnccn3)c2cc1N1CCC[C@@H]1COc1ncccc1Cl` [Example 487, (R)-7-(2-(((3-chloropyridin-2-yl)oxy)methyl)pyrrolidin-1-yl)-6-methyl-4-oxo-1-(pyrazin-2-yl)-1,4-dihydroquinoline-3-carboxylic acid], for which the IC50 was at most 1 µM.

Take `N#Cc1cc2c(=O)c(C(=O)O)cn(-c3ccc(N4CCC4)nc3)c2cc1N1CCC[C@@H]1COc1ncccc1Cl` [Example 488, 1-[6-(azetidin-1-yl)pyridin-3-yl]-7-[(2R)-2-{[(3-chloropyridin-2-yl)oxy)methyl}pyrrolidin-1-yl]-6-cyano-4-oxo-1,4-dihydroquinoline-3-carboxylic acid]: the IC50 was at most 1 µM. For `O=C(O)c1cn(-c2cccnc2)c2cc(N3CCC[C@@H]3COc3ncccc3Cl)c(Cl)cc2c1=O` [Example 489, (R)-6-chloro-7-(2-(((3-chloropyridin-2-yl)oxy)methyl)pyrrolidin-1-yl)-4-oxo-1-(pyridin-3-yl)-1,4-dihydroquinoline-3-carboxylic acid], the half-maximal inhibitory concentration (IC50) is at most 1 µM.

`O=C(O)c1cn(-c2ccncc2)c2cc(N3CCC[C@@H]3COc3ncccc3Cl)c(Cl)cc2c1=O` [Example 490, (R)-6-chloro-7-(2-(((3-chloropyridin-2-yl)oxy)methyl)pyrrolidin-1-yl)-4-oxo-1-(pyridin-4-yl)-1,4-dihydroquinoline-3-carboxylic acid]: the IC50 is at most 1 µM.

On to `O=C(O)c1cn(-c2ccc(N3CCC3)nc2)c2cc(N3CCC[C@@H]3COc3ncccc3Cl)c(Br)cc2c1=O` [Example 491, (R)-1-(6-(azetidin-1-yl)pyridin-3-yl)-6-bromo-7-(2-(((3-chloropyridin-2-yl)oxy)methyl)pyrrolidin-1-yl)-4-oxo-1,4-dihydroquinoline-3-carboxylic acid], for which the IC50 is at most 1 µM.

In the case of `CN(C)CCNc1cnc(-n2cc(C(=O)O)c(=O)c3cc(Cl)c(N4CCC[C@@H]4COc4ncccc4Cl)cc32)cn1` [Example 492, (R)-6-chloro-7-(2-(((3-chloropyridin-2-yl)oxy)methyl)pyrrolidin-1-yl)-1-(5-((2-(dimethylamino)ethyl)amino)pyrazin-2-yl)-4-oxo-1,4-dihydroquinoline-3-carboxylic acid], the IC50 was at most 1 µM. With `CS(=O)(=O)Nc1cnc(-n2cc(C(=O)O)c(=O)c3cc(Cl)c(N4CCC[C@@H]4COc4ncccc4Cl)cc32)cn1` [Example 493, (R)-6-chloro-7-(2-(((3-chloropyridin-2-yl)oxy)methyl)pyrrolidin-1-yl)-1-(5-(methyl-sulfonamido)pyrazin-2-yl)-4-oxo-1,4-dihydroquinoline-3-carboxylic acid], the concentration for half-maximal inhibition (IC50) is at most 1 µM. As for `COCCNC1CN(c2ccc(-n3cc(C(=O)O)c(=O)c4cc(Cl)c(N5CCC[C@@H]5COc5ncccc5Cl)cc43)cn2)C1` [Example 494, (R)-6-chloro-7-(2-(((3-chloropyridin-2-yl)oxy)methyl)pyrrolidin-1-yl)-1-(6-(3-((2-methoxyethyl)amino)azetidin-1-yl)pyridin-3-yl)-4-oxo-1,4-dihydroquinoline-3-carboxylic acid], the figure is at most 1 µM.

`COCCN(C)C1CN(c2ccc(-n3cc(C(=O)O)c(=O)c4cc(Cl)c(N5CCC[C@@H]5COc5ncccc5Cl)cc43)cn2)C1` [Example 495, (R)-6-chloro-7-(2-(((3-chloropyridin-2-yl)oxy)methyl)pyrrolidin-1-yl)-1-(6-(3-((2-methoxyethyl) (methyl)amino)azetidin-1-yl)pyridin-3-yl)-4-oxo-1,4-dihydroquinoline-3-carboxylic acid]: the IC50 was at most 1 µM. Turning to `O=C(O)c1cn(-c2ccc(N3CC4(CNC4)C3)nc2)c2cc(N3CCC[C@@H]3COc3ncccc3Cl)c(Cl)cc2c1=O` [Example 496, (R)-1-(6-(2,6-diazaspiro[3.3]heptan-2-yl)pyridin-3-yl)-6-chloro-7-(2-(((3-chloropyridin-2-yl)oxy)methyl)pyrrolidin-1-yl)-4-oxo-1,4-dihydroquinoline-3-carboxylic acid], the half-maximal inhibitory concentration (IC50) is at most 1 µM. Turning to `O=C(O)c1cn(-c2cncnc2)c2cc(N3CCC[C@@H]3COc3ncccc3Cl)c(Cl)cc2c1=O` [Example 497], the IC50 is at most 1 µM. For the compound `O=C(O)c1cn(-c2cccnn2)c2cc(N3CCC[C@@H]3COc3ncccc3Cl)c(Cl)cc2c1=O` [Example 498, (R)-6-chloro-7-(2-(((3-chloropyridin-2-yl)oxy)methyl)pyrrolidin-1-yl)-4-oxo-1-(pyridazin-3-yl)-1,4-dihydroquinoline-3-carboxylic acid], the half-maximal inhibitory concentration (IC50) is at most 1 µM.

Consider `O=C(O)c1cn(-c2ccccn2)c2cc(N3CCC[C@@H]3COc3ncccc3Cl)c(Cl)cc2c1=O` [Example 499, (R)-6-chloro-7-(2-(((3-chloropyridin-2-yl)oxy)methyl)pyrrolidin-1-yl)-4-oxo-1-(pyridin-2-yl)-1,4-dihydroquinoline-3-carboxylic acid], for which the IC50 is at most 1 µM. As for `O=C(O)c1cn(-c2ncccn2)c2cc(N3CCC[C@@H]3COc3ncccc3Cl)c(Cl)cc2c1=O` [Example 500, (R)-6-chloro-7-(2-(((3-chloropyridin-2-yl)oxy)methyl)pyrrolidin-1-yl)-4-oxo-1-(pyrimidin-2-yl)-1,4-dihydroquinoline-3-carboxylic acid], the figure is at most 1 µM; as for `Cn1ccnc1OC[C@H]1CCCN1c1cc2c(cc1Cl)c(=O)c(C(=O)O)cn2-c1ccc(N2CCC2)nc1` [Example 501, (R)-1-(6-(azetidin-1-yl)pyridin-3-yl)-6-chloro-7-(2-(((1-methyl-1H-imidazol-2-yl)oxy)methyl)pyrrolidin-1-yl)-4-oxo-1,4-dihydroquinoline-3-carboxylic acid], at most 1 µM; as for `CNCCN1CCC(n2cc(C(=O)O)c(=O)c3cc(Cl)c(N4CCC[C@@H]4COc4ncccc4Cl)cc32)CC1` [Example 502, (R)-6-chloro-7-(2-(((3-chloropyridin-2-yl)oxy)methyl)pyrrolidin-1-yl)-1-(1-(2-(methyl-amino)ethyl)piperidin-4-yl)-4-oxo-1,4-dihydroquinoline-3-carboxylic acid], 1 to 10 µM. Regarding `O=C(O)c1cn(-c2cnc(OCc3ccccc3)cn2)c2cc(N3CCC[C@@H]3COc3ncccc3Cl)c(Cl)cc2c1=O` [Example 503, (R)-1-(5-(benzyloxy)pyrazin-2-yl)-6-chloro-7-(2-(((3-chloropyridin-2-yl)oxy)methyl)pyrrolidin-1-yl)-4-oxo-1,4-dihydroquinoline-3-carboxylic acid], the IC50 was in the range of 1 to 10 µM. For the compound `O=C(O)c1cn(-c2ccnnc2)c2cc(N3CCC[C@@H]3COc3ncccc3Cl)c(Cl)cc2c1=O` [Example 504, 6-chloro-7-[(2R)-2-{[(3-chloropyridin-2-yl)oxy]methyl}pyrrolidin-1-yl]-4-oxo-1-(pyridazin-4-yl)-1,4-dihydroquinoline-3-carboxylic acid], the IC50 is at most 1 µM. As to `O=C(O)c1cn(-c2cc3cc[nH]c3cc2F)c2cc(N3CCC[C@@H]3COc3ncccc3Cl)c(Cl)cc2c1=O` [Example 505, (R)-6-chloro-7-(2-(((3-chloropyridin-2-yl)oxy)methyl)pyrrolidin-1-yl)-1-(6-fluoro-1H-indol-5-yl)-4-oxo-1,4-dihydroquinoline-3-carboxylic acid], the IC50 was at most 1 µM. As for `CNc1cnc(-n2cc(C(=O)O)c(=O)c3cc(Cl)c(N4CCC[C@@H]4COc4ncccc4Cl)cc32)cn1` [Example 506, (R)-6-chloro-7-(2-(((3-chloropyridin-2-yl)oxy)methyl)pyrrolidin-1-yl)-1-(5-(methylamino)pyrazin-2-yl)-4-oxo-1,4-dihydroquinoline-3-carboxylic acid], the figure is at most 1 µM; as for `O=C(O)c1cn(-c2ccc(N3CC(N4CCC4)C3)nc2)c2cc(N3CCC[C@@H]3COc3ncccc3Cl)c(Cl)cc2c1=O` [Example 507, (R)-1-(6-([1,3′-biazetidin]-1′-yl)pyridin-3-yl)-6-chloro-7-(2-(((3-chloropyridin-2-yl)oxy)methyl)pyrrolidin-1-yl)-4-oxo-1,4-dihydroquinoline-3-carboxylic acid], at most 1 µM.
